Six compounds from US20240300882A1, “CRYSTALLINE FORMS OF A DIFFUSION ENHANCING COMPOUND” (DIFFUSION PHARMACEUTICALS LLC, priority 2021, published 2024) can be followed below.

Format in all cases: physicochemical
Data set [1] is described as follows: Equilibrium solubility shake-flask method, 24-hour slurry, XRPD result. Particulars: water and ethanol. The method, then:
Solubility is evaluated using shake-flask method at room temperature. Individual samples are prepared as follows: Approximately 20 mg of TSC Forms A, F, and J are placed in a 1-dram glass vial. To each vial is added 1.5 mL of media. The vials are then placed in an incubation chamber at room temperature with shaking at 150 rpm. After 24 hours the vials are removed and each slurry is vacuum filtered. The mother liquor is diluted 1:10 with the respective media for that sample and analyzed by HPLC. Water used is HPLC grade. Ethanol used in absolute, HPLC grade.

The nature of data set [2]: Solid-state stability in relative humidity jars, analysed by XRPD. Particulars: up to 4 weeks at 25° C./60% RH and 40° C./75% RH. The method, then: The solid-state stability of TSC Crystalline Forms A and F are evaluated at 25° C./60% relative humidity (RH) and 40° C./75% RH.
To a 1-dram glass vial is added approximately 20 mg of TSC Crystalline Form A or F. The open vials are placed in relative humidity (RH) jars. The RH in each jar is controlled by a saturated salt solution (sodium bromide for 60% RH and sodium chloride for 75% RH). The RH jars are purged with nitrogen and sealed. The sealed RH jars are placed in ovens set at the appropriate temperatures. The materials are analyzed at given time points by XRPD.

The nature of data set [3]: Heating to 100° C. in a TG furnace, then XRPD. Conditions: Heat to 100° C., hold 1 minute. The method, then:
Crystalline Forms A and B are heated to 100° C. in a TG furnace, held at that temperature for 1 minute, and immediately analyzed by XRPD.

A short description of data set [4]: Competitive slurry experiments, wet solid analysed by XRPD. The procedure:
Sample preparation is carried out in a nitrogen glove box. Saturated solutions of TSC from Example 2 are prepared at a given temperature. The volume of each solution is about 1.5 mL and it is deemed saturated if excess solid remains after stirring for 2 hours. The sample is then centrifuged and the mother liquor is transferred to a vial containing equal amounts of each polymorph, about 10 mg each. The vials are capped and sealed with parafilm, and the slurries are then stirred magnetically at a given temperature for 5 days. Each sample is then centrifuged, the mother liquor decanted, and the wet solid immediately analyzed by XRPD.
Competitive slurry experiments involving Crystalline Forms A through E are carried out at three different temperatures using three different solvent systems (Table 2). […] At 50° C., the slurries in 1:1 acetone:water and 1:1 acetonitrile:water produce a mixture of Crystalline Forms A and B and Crystalline Form A, respectively. Although both solvent systems contain significant amounts of water, the slurries are carried out at a temperature at which Crystalline Form B is known to lose volatiles. […] That is probably the reason that Crystalline Form A results from the higher-temperature slurries in water-containing solvents.
Additional competitive slurry experiments are carried out between Crystalline Forms A, B, and F (Table 3). The data are consistent with the results in Example 10. […] The elevated temperature aqueous slurry data is also consistent with Example 10. Crystalline Form A is observed in aqueous media at 50° C. In the case of the 1:1 ethanol:water slurry, the XRPD pattern of the resulting material matches that of Crystalline Form A but contains several unidentified peaks.

A short description of data set [5]: Dynamic vapor sorption (DVS) analysis. Conditions: for Form by XRPD after DVS analysis: exposed up to 95% RH and down to 5% RH. The procedure: DVS analysis is carried out using a TA Instruments Q5000 Dynamic Vapor Sorption analyzer. The instrument is calibrated with standard weights and a sodium bromide standard for humidity. Approximately 10-25 mg (e.g., 20 mg) or 5-15 mg of sample is loaded into a metal-coated quartz pan for analysis. The sample is analyzed at 25° C. with a maximum equilibration time of one hour in 10% relative humidity (RH) steps from 5 to 95% RH (adsorption cycle) and from 95 to 5% RH (desorption cycle). The movement from one step to the next occurred either after satisfying the equilibrium criterion of 0.01% weight change or, if the equilibrium criterion is not met, after one hour. The percent weight change values are calculated using Microsoft Excel®. The temperature for the DVS analysis may impact the outcome of the results.

Data set [6] can be described thus: XRPD under a nitrogen stream of variable relative humidity. The method, then: Form H from Example 25 is measured under different relative humidities. The humidity measurements are made on a powder diffractometer X'Pert, PANalytical (G.16.SYS.S006) using CuKα radiation. Measuring conditions: tube power 40 kV/40 mA, scan range 1°-50° (2θ), step size 0.02°, time per step 2.4 seconds. The sample is measured in a 0.4 mm deep sample holder in a closed chamber under a stream of nitrogen of variable relative humidity (RH). The humidity of the nitrogen stream is controlled by varying the relative amount of humid and dry nitrogen gas. The sample is first conditioned one hour with a dry nitrogen stream and then a first XPRD is taken. The humidity of the gas stream is then changed to 50% RH and the sample is conditioned three hours to the new RH prior to a second XRPD measurement. After 10 more hours with 50% RH, a third XRPD is taken.

The nature of data set [7]: Physical stability of Crystalline Form F under slurry conditions, XRPD. Particulars: anhydrous ethanol and ethanol with 1 and 5% water, ambient temperature, up to 4 days. The method, then: The physical stability of Crystalline Form F is evaluated when it is slurried in three solvent systems (anhydrous ethanol and ethanol containing both 1 and 5% water by volume) at ambient temperature.
To a 1-dram glass vial is added approximately 20 mg of TSC Crystalline Form F and 1 mL of a given solvent. The slurry is stirred at room temperature for a given amount of time. The vial is then centrifuged, the mother liquor decanted, and the wet solid is analyzed by XRPD.

With “trans sodium crocetinate [Crystalline Form A]”, the “Form after 24-hour slurry experiments” value in data set [1] is recorded as “remain unchanged”. Further, in data set [2], the “Solid-state stability of the form” value is given as “remain unchanged”. Besides, the “XRPD pattern after heating” value in data set [3] is “remains unchanged”. For the same compound, the “Relative stability of the forms” value in data set [4] (between 2 and 50° C. in methanol) is on record as “more stable than Forms B through E”; in data set [4] (between 2 and 55° C. in absolute ethanol and absolute ethanol containing either 10% methanol or toluene) it was “more stable than Forms B through F”; in data set [4] (non-aqueous conditions), “most stable form”. Further, the maximum water absorption result in data set [5] (DVS, 25° C., 5 to 95% RH) is reported as “about 2.5%”. Besides, the “Form by XRPD after DVS analysis” value in data set [5] was “remains unchanged”.
Regarding `CC(/C=C/C=C(\C)C(=O)[O-])=C\C=C\C=C(C)\C=C\C=C(/C)C(=O)[O-].[Na+].[Na+]` [Form H, trans sodium crocetinate], the “Form on exposure to different relative humidities” value in data set [6] is “changes form”. Besides, the “Form by XRPD after humidity exposure” value in data set [6] (0% RH, dry nitrogen stream, one hour) was “Form G”; in data set [6] (50% RH, 10 more hours (third XRPD)) it was “no difference between the second and third XRPDs”; in data set [6] (50% RH, three hours), “Form E”.
“trans sodium crocetinate [Crystalline Form J]”: the “Form after 24-hour slurry experiments” value in data set [1] was “exhibits form conversion”.
In the case of `CC(/C=C/C=C(\C)C(=O)[O-])=C\C=C\C=C(C)\C=C\C=C(/C)C(=O)[O-].[Na+].[Na+]` [Example 20, trans sodium crocetinate], the “Form by XRPD after DVS analysis” value in data set [5] is listed as “remains unchanged”.
Take “trans sodium crocetinate [Crystalline Form F]”: the “Form after 24-hour slurry experiments” value in data set [1] is “remain unchanged”. The “Solid-state stability of the form” value in data set [2] is recorded as “remain unchanged”. Moreover, in data set [7], the “Physical stability of the form when slurried” value is “remains unchanged”. Moreover, the “Form by XRPD after DVS analysis” value in data set [5] is “remains unchanged”.
On to `CC(/C=C/C=C(\C)C(=O)[O-])=C\C=C\C=C(C)\C=C\C=C(/C)C(=O)[O-].[Na+].[Na+]` [Crystalline Form B, trans sodium crocetinate], for which the “XRPD pattern after heating” value in data set [3] is “converts to Crystalline Form F”. Moreover, the “Relative stability of the forms” value in data set [4] (aqueous conditions) is “most stable form”; in data set [4] (between 2 and 55° C. in 1:1 ethanol:water (v/v)), “more stable than Forms A, C, D, E, and F”.
